According to patent US20080200405A1, “Drug Resistance Reversal In Neoplastic Disease” (priority 2007, published 2008):

Experiments:
[1] = test system: VEGF-induced angiogenesis in the CAM model; experiment: VEGF-induced angiogenesis in the CAM model; format: in vivo, chicken; conditions: for Mean % Inhibition ± SD / Mean Branch points ± SD: VEGF 2 μg/ml
Experimental: (§1) In vivo neovascularization was examined by the method previously described by Auerbach et al. (J. Dev. Biol. 41:391-394 (1974)). Ten-day old chicken embryos were purchased from Spafas, Inc. (Preston, Conn.) and were incubated at 37° C. with 55% relative humidity. In the dark, with the aid of a candling lamp, a small hole was punctured in the shell concealing the air sac with a hypodermic needle. A second hole was punctured in the shell on the broadside of the egg directly over an […] portion of the embryonic membrane, as observed during candling. An artificial air sac was created beneath the second hole by applying gentle vacuum to the first hole using a small rubber squeeze bulb. The vacuum caused the chorioallantoic membrane (CAM) to separate from the shell.
(§2) A pro-angiogenic agent was added to induce new blood vessel branches on the CAM of 10-day old embryos. Filter disks of #1 filter paper (Whatman International, United Kingdom) were punched using a small puncher and were soaked in 3 mg/mL cortisone acetate (Sigma, St. Louis, Mo.) in a solution (95% ethanol and water). The disks were subsequently air dried under sterile conditions. The disks were then suspended in PBS (Phosphate Buffered Saline) and placed on growing CAMs. Filters treated with TP-H (TEMPOL-H) or TEMPOL and/or H2O2 or TP-H and/or bFGF or VEGF were placed on the first day of the 3-day incubation.
(§3) The number of vessel branch points contained in a circular region equal to the area of a filter disk was counted for each section. Percent inhibition data are expressed as the quotient of the experimental value minus the negative control value divided by the difference between the positive control value and the negative control value. One image was counted in each CAM preparation, and findings from eight CAM preparations were analyzed for each treatment condition. In addition, each experiment was performed three times. The resulting angiogenesis index is the mean ±SEM (Standard Error of Measurement) of new branch points in each set of treatment. Statistical analysis of blood vessel branching patterns are performed by 1-way analysis of variance (ANOVA) comparing experimental with corresponding control groups. Statistical significance differences are assessed at P value of <0.05.
TP-H was applied to the CAM model study to determine its respective anti-angiogenesis effects according to the materials and methods described above. VEGF was used to induce angiogenesis in the CAM model.

[2] = test system: H2O2-induced angiogenesis in the CAM model; experiment: H2O2-induced angiogenesis in the CAM model; format: in vivo, chicken; conditions: for % Inhibition ± SD / Branch pts ± SEM: H2O2 88 μM, 30 ng
Experimental: as §1, §2, §3
TP-H (TEMPOL-H, the hydroxylamine reduced form of the nitroxide 4-hydroxy-2,2,6,6-tetramethylpiperidin-1-yloxy) or TEMPOL (4-hydroxy-2,2,6,6-tetramethylpiperidine-N-oxyl radical) was applied to the CAM model study to determine its respective anti-angiogenesis effects according to the materials and methods provided in Example 1. H2O2 was used to induce angiogensis in the CAM model.

[3] = test system: selenite induced cataract; experiment: Selenite induced cataract in mice; conditions: mouse, in vivo
Excerpt: In addition, as mentioned above, there is no precedent for the prevention of growth factor-induced angiogenesis by either TEMPOL or hydroxylamines.

[4] = In vitro stability in rat, rabbit, dog, and human plasma (overall statement); format: in vitro ADME; conditions: 240 minute incubation in plasma
Experimental: The active metabolite of OT-551 (Cyclopropanecarboxylic acid 1-hydroxy-2,2,6,6-tetramethyl-piperidin-4-yl ester) is TP-H. The objective of this analysis was to determine the in vitro half-life of OT-551 in rat, rabbit, dog, and human plasma under standardized incubation conditions.
OT-551 was incubated with pooled rat, rabbit, dog, and human plasma for various times under standardized incubation conditions. Pre-labeled tubes containing pooled plasma from rats, rabbits, dogs, and humans were pre-incubated in a shaking 37° C. water bath. A OT-551 solution was added to the tubes at a final concentration of 1000 ng/mL. Time zero samples (n=5) were immediately removed and transferred into tubes containing a stabilizer solution (DTPA, acetylcysteine and ascorbic acid), the LC/MS/MS assay internal standard and methanol. […] The tubes were vortexed, placed on ice, followed by centrifugation. One hundred-μL aliquots of the supernatant were transferred into HPLC sample vials. Additional tubes (n=5 at each time point) were incubated for 5, 10, 20, 30, 60, 120, and 240 minutes at 37° C. and thereafter processed. The amount of OT-551 and TP-H in each incubated sample was quantified using validated LC/MS/MS assays.

[5] = test system: Human whole blood clot formation; conditions: compound 4 at 1 ug and 10 ug
[6] = Ocular permeability and retina levels after topical administration; format: in vivo
[7] = test system: drug sensitive and resistant cell lines SKN-SH, Neuro2A, Saos2, HL-60; experiment: Reversal of drug resistance in various cancer types (OT-551 with or without doxorubicin); format: cell-based, human, murine; conditions: in combination with doxorubicin; 96 hours
Experimental: This example illustrates that OT-551 and analogs reverse drug resistance to non-anthracycline drugs in various cancer types. The effects of analogs were tested on drug sensitive and resistant (R) cell lines corresponding to various cancer types, including the human neuroblastoma cell line SKN-SH (ATCC Cat. No. HTB-1), the murine neuroblastoma cell line Neuro2A (ATCC Cat. No. CCL-131), the osteosarcoma cells Saos2 (ATCC Cat. No. HTB-85) and the leukemia cell line HL-60 (ATCC Cat. No. CCL240). The cells were treated with OT-551 with or without doxorubicin as described above. Cell viability was calculated after 96 hours of incubation with the drug combination.

For `CC1(C)CC(O)CC(C)(C)N1O` [TEMPOL-H], the “Mean % Inhibition ± SD” value ([1]; 100 μg) was 37.6 ± 6.9 %, the “Mean Branch points ± SD” value ([1]; 100 μg) was 154.8 ± 7.5 and the “Mean % Inhibition ± SD” value ([1]; 200 μg) was 42 ± 3.5 %. The “Mean Branch points ± SD” value ([1]; 200 μg) was 150 ± 3.8, the “Mean % Inhibition ± SD” value ([1]; 400 μg) was 53.3 ± 3.3 % and the “Mean Branch points ± SD” value ([1]; 400 μg) was 137.8 ± 3.0. The “Mean % Inhibition ± SD” value ([1]; 800 μg) was 70.7 ± 9.1 %, the “Mean Branch points ± SD” value ([1]; 800 μg) was 118.8 ± 9.9 and the “inhibition of VEGF-induced angiogenesis” value ([1]; in vivo) was “dose-dependent inhibition”. The “% Inhibition ± SD” value ([2]; 100 μg) was 28.0 ± 13.6 %, the “Branch pts ± SEM” value ([2]; 100 μg) was 155 ± 14.4 and the “% Inhibition ± SD” value ([2]; 200 μg) was 32.9 ± 8.4 %. The “Branch pts ± SEM” value ([2]; 200 μg) was 151.3 ± 15.3, the “% Inhibition ± SD” value ([2]; 400 μg) was 44.7 ± 6.6 % and the “Branch pts ± SEM” value ([2]; 400 μg) was 137.2 ± 6.9. The “% Inhibition ± SD” value ([2]; 800 μg) was 55.7 ± 7.2 %, the “Branch pts ± SEM” value ([2]; 800 μg) was 127.3 ± 6.4 and the “inhibition of angiogenesis induced by super-maximal concentrations of H2O2” value ([2]; in vivo) was “effectively inhibited”. The “prevention of selenite induced cataract” value [3] was “effective” and the “stability of TP-H during the incubation period” value [4] was “stable during the 240 minute incubation period”.
In the case of `CC1(C)CC(OC(=O)C2CC2)CC(C)(C)N1O.Cl` [OT-551, 1-hydroxy-4-cyclopropanecarbonyloxy-2,2,6,6-tetramethylpiperidine hydrochloride], the “effect on clot formation with Bevacizumab/Ranibizumab” value [5] is reported as “completely abrogated the clot formation”, the “levels in the retina” value ([6]; after topical administration) is reported as “good levels in the retina” and the “permeability through the cornea” value ([6]; in vivo) is reported as “good permeability through the cornea”. For the same compound, the “effect on doxorubicin toxicity” value [7] was “able to enhance doxorubicin toxicity in all the drug resistant cell lines tested”.
